# Key:
# Assay type in all cases: cell-based
# [1] = test system: human vulvar fibroblasts; test: In vitro LPV model: SPM post-treatment of already activated patient fibroblasts, IL-6 and PGE2; details: post-treatment: IL-1β 30 min; for IL-6 production / PGE2 production: then 5 nM 18 hours, booster dose 24 hr; for IL-6 production: FIG. 24A; for PGE2 production: FIG. 24B
# Method: (§1) FIGS. 5A, 5B, 5C, and 5D are a set of diagrams showing that PGE2 and IL-6 production is reduced by SPMs. Patient vestibular or vulvar fibroblasts were pre-treated for 10 hours with Lipoxin A4 (LxA4), Resolvin D2 (RvD2), (7R)-Maresin 1 or epi(7S)-Maresin 1 at a 5 nM concentration, then activated with IL-1β (Panel A; 10 pg/ml) or bradykinin (Panel B; 100 nM) for 48 hr. Culture media were collected and analyzed for PGE2 (Panel A) or IL-6 (Panel B) content. Patient fibroblasts were also activated first with IL-1β for 30 min then treated with 5 nM (7R)-Maresin 1 or LXA4 for 18 hours, followed by a booster dose for 6 hr. Culture media were collected and analyzed for PGE2 (Panel C) or IL-6 (Panel D) content. Mean+/−SEM of n=3, ANOVA *p<0.05 vs. activation only (no SPM).
# FIGS. 24A and 24B are diagrams showing that six SPMs are effective in reducing IL-6 and PGE2 production from fibroblasts when used as a post-treatment. Patient vestibular or vulvar fibroblasts were activated first with IL-1β for 30 min then treated with RvD3, RvD4, RvD5, RvE1, Protectin D1 or Protectin DX at a 5 nM concentration for 18 hours, followed by a booster SPM dose for 24 hr. Culture media were collected and analyzed for IL-6 (Panel A) and PGE2 (Panel B) content. Mean+/−SEM of n=6 (two cases run in triplicate), ANOVA *p<0.05 vs. activation only (IL-1b). […] The magnitude of reduction was not as great as pre-treatment, but equally significant as the reduction from pre-treatment regimens.
# (§2) In this example, a fibroblast-based in vitro LPV model was established. Briefly, fibroblast strains were obtained from two regions (FIG. 1) of the lower genital tract of localized provoked vulvodynia (LPV) cases and pain-free controls in the manner described in Falsetta et al. Am J Obstet Gynecol 2015, vol. 213, pp. 38 e1-12 and Foster et al., Pain 2015, vol. 156, pp. 386-96.
# (§3) Over 30 paired fibroblast strains obtained from LPV-afflicted cases (fulfilling Friedrich's Criteria)^25 and age/race-matched (critical variables influencing LPV),^26, 27 pain-free controls were obtained. All subjects who contributed to the library were premenopausal, denied oral corticosteroids, non-steroidal, immunomodulatory, or anti-inflammatory medication use, and reported an absence of systemic/cutaneous inflammatory conditions at the time of sample collection. Mechanical pain thresholds were determined (via a method of limits) (0.5-5 N) using a Wagner algometer. Fibroblast identity was confirmed by microscopy and fibroblast markers (vimentin, collagen); only low passage (˜4) cells are used.
# (§4) Synthesized, purified and commercially available SPMs from each known SPM class (E-series Resolvins, D-series Resolvins, Maresins, Protectins and Lipoxins) at low/nanomolar concentrations (1-100 nM) were tested. […] The inventors used one of two treatment regimens proven effective in vulvar fibroblasts and other cells: 1) overnight pre-treatment, followed by another treatment 30 min prior to stimulation with proinflammatory stimuli for 48 hr with a third dose of SPMs at 24 hr post-challenge, or 2) post-treatment with SPMs after a 30 min pre-treatment with inflammatory stimuli, followed by a booster dose 18 hr later. Both treatment regimens are of interest, as SPMs are active throughout the inflammatory process.^5-7 Even SPMs administered after LPV onset are likely to prevent the worsening or spread of LPV pain.
# [2] = test system: human vulvar fibroblasts; test: In vitro LPV model: SPM pre-treatment of patient vestibular/vulvar fibroblasts before inflammatory stimulation, IL-6 and PGE2 by ELISA/EIA; details: for prostaglandin E2 (PGE2) production / interleukin-6 (IL-6) production: pre-treated 10 hours with 5 nM SPM, vestibular and external vulvar fibroblasts; for prostaglandin E2 (PGE2) production: then IL-1β 10 pg/ml 48 hr, FIG. 5A; for interleukin-6 (IL-6) production: then bradykinin 100 nM 48 hr, FIG. 5B; for IL-6 production / PGE2 production: pre-treated 18 h at 5 nM, again 30 min prior to activation, IL-1β 10 pg/ml 48 h, booster at 24 h; for IL-6 production: FIG. 23A; for PGE2 production: FIG. 23B; for effect on proinflammatory mediators linked to pain, initial tests: pre-treatment strategy, human vulvar fibroblasts
# Method: as §1
# FIGS. 23A and 23B are diagrams showing six SPMs are effective in reducing IL-6 and PGE2 production from fibroblasts when used as a pre-treatment and post-treatment. Patient vestibular or vulvar fibroblasts were pre-treated for 18 h with Resolvin D3 (RvD3), Resolvin D4 (RvD4), Resolvin D5 (RvD5), Resolvin E1 (RvE1), Protectin D1 or Protectin DX at a 5 nM concentration, pre-treated again for 30 min prior to activation, then activated with 10 pg/ml IL-1β for 48 h with a booster SPM dose at 24 h. Culture media were collected and analyzed for IL-6 (Panel A) and PGE2 (Panel B). Mean+/−SEM of n=6 (two cases run in triplicate), ANOVA *p<0.05 vs. activation only (IL-1b).
# as §2, §3, §4
# Next, SPMs from other classes (E series Resolvins and Protectins), as well as additional SPMs from classes containing members that are effective in reducing IL-6 and PGE2 production (e.g., Maresins) were investigated in similar screen. […] SPMs that were effective in reducing more than one proinflammatory mediator in at least 2 tests can be examined for further testing using a preclinical mouse model. […] These additional effective SPMs include Resolvin D3, Resolvin D4, Resolvin D5, Resolvin E1, Protectin D1, and Protectin DX. […]
# [3] = test system: Mouse vulvar tissue; test: Mouse vulvar explants (4 mm punch biopsy), IL-1β-stimulated PGE2 production; details: pre-treatment 18 hours, then IL-1β 10 pg/ml 18 hours; range of doses, as low as 1 nM; FIG. 6
# Method: FIG. 6 is a diagram showing that SPMs inhibit PGE2 production from mouse vulvar tissue. Mouse vulvar tissue (4 mm punch biopsies) was collected and bisected then pre-treated in culture medium with either Maresin 1 or RvD2 at indicated concentrations for 18 hours, followed by an additional 18 hours stimulation with IL-1β (10 pg/ml). Culture medium was collected and analyzed for PGE2 content. Mean+/−SEM; n=3 replicate cultures. ANOVA * p<0.05 vs. vehicle.
# Although SPM structure and therapeutic efficacy is conserved across species,^5-7 inventors first confirmed that mouse vulvar tissues responded to SPM treatment in vitro by culturing mouse vulvar explants (4 mm punch biopsy). The explants were stimulated with IL-1, and then assays were carried to assess the ability of Maresin 1 or RvD2 to reduce PGE2 production under the established pre-treatment regimen.
SMILES,IL-6 production [1],PGE2 production [1],IL-6 production [2],PGE2 production [2],"effect on proinflammatory mediators linked to pain, initial tests [2]",also measured
"CCCCC[C@H](O)/C=C/C=C\C=C\C=C\[C@@H](O)[C@@H](O)CCCC(=O)O [Lipoxin A4, 5S,6R,15S-trihydroxy-eicosa-7E,9E,11Z,13E-tetraenoic acid]",–,–,–,–,–,"PGE2 levels ([1]; then 5 nM SPM 18 hours, booster dose 6 hr, FIG. 5C): significantly reduced; IL-6 levels ([1]; then 5 nM SPM 18 hours, booster dose 6 hr, FIG. 5D): significantly reduced; prostaglandin E2 (PGE2) production [2]: significantly reduced; interleukin-6 (IL-6) production [2]: significantly reduced"
"CC/C=C\C[C@H](O)[C@H](O)/C=C/C=C/C=C\C=C\[C@@H](O)C/C=C\CCC(=O)O [Resolvin D2, 7S,16R,17S-trihydroxy-docosa-4Z,8E,10Z,12E,14E,19Z-hexaenoic acid]",–,–,–,–,–,PGE2 responses following IL-1β treatment [3]: significantly suppressed; prostaglandin E2 (PGE2) production [2]: significantly reduced; interleukin-6 (IL-6) production [2]: significantly reduced
CC/C=C\C[C@H](O)/C=C/C=C\C=C\[C@@H](O)C/C=C\C/C=C\CCC(=O)O [Protectin DX],showed efficacy,showed efficacy,showed efficacy,showed efficacy,–,–
"CC/C=C\C[C@H](O)/C=C/C=C\C=C\C=C\[C@@H](O)[C@@H](O)C/C=C\CCC(=O)O [Resolvin D1, 7S,8R,17S-trihydroxy-docosa-4Z,9E,11E,13Z,15E,19Z-hexaenoic acid]",–,–,–,–,no striking effects,–
"CC[C@@H](O)/C=C/C=C\C[C@@H](O)/C=C/C=C/C=C\[C@@H](O)CCCC(=O)O [Resolvin E1, 5S,12,18-trihydroxy-eicosa-6Z,8E,10E,14Z,16E-pentaenoic acid]",showed efficacy,showed efficacy,showed efficacy,showed efficacy,–,–
CCCCC[C@H](O)[C@H](O)/C=C/C=C/C=C\C=C\[C@@H](O)CCCC(=O)O [Lipoxin B4],–,–,–,–,no striking effects,–
CC/C=C\C[C@H](O)/C=C/C=C\C/C=C\C=C\[C@@H](O)C/C=C\CCC(=O)O [Resolvin D5],showed efficacy,showed efficacy,showed efficacy,showed efficacy,–,–
"CC/C=C\C[C@@H](O)/C=C/C=C\C=C\C=C\[C@@H](O)[C@@H](O)C/C=C\CCC(=O)O [AT-Resolvin D1, 7S,8R,17R-trihydroxy-docosa-4Z,9E,11E,13Z,15E,19Z-hexaenoic acid]",–,–,–,–,no striking effects,–
"CC/C=C\C[C@H](O)/C=C/C=C\C[C@@H](O)/C=C/C=C/C=C\[C@@H](O)CCC(=O)O [Resolvin D3, 4S,11R,17S-trihydroxy-docosa-5Z,7E,9E,13Z,15E,19Z-hexaenoic acid]",showed efficacy,showed efficacy,showed efficacy,showed efficacy,–,–
"CC/C=C\C[C@H](O)/C=C/C=C\C\C=C/C=C/C=C/[C@@H](O)[C@@H](O)CCC(=O)O [Resolvin D4, 4S,5,17S-trihydroxy-docosa-6E,8E,10Z,13Z,15E,19Z-hexaenoic acid]",showed efficacy,showed efficacy,showed efficacy,showed efficacy,–,–
"CC/C=C\C/C=C\C[C@H](O)\C=C/C=C/C=C/[C@@H](O)C/C=C\CCC(=O)O [epi-Maresin 1, 7S,14S-docosa-4Z,8E,10E,12Z,16Z,19Z-hexaenoic acid]",–,–,–,–,–,prostaglandin E2 (PGE2) production [2]: significantly reduced; interleukin-6 (IL-6) production [2]: significantly reduced
"CC/C=C\C[C@H](O)\C=C/C=C/C=C/[C@H](O)C/C=C\C/C=C\CCC(=O)O [Protectin D1, 10R,17S-dihydroxy-docosa-4Z,7Z,11E,13E,15Z,19Z-hexaenoic acid]",showed efficacy,showed efficacy,showed efficacy,showed efficacy,–,–
"CC/C=C\C[C@H](O)/C=C/C=C\C/C=C\C/C=C\C/C=C\CCC(=O)O [17(S)-HDHA, 17(S)-hydroxy docosahexaenoic acid]",–,–,–,–,no striking effects,–

# Reference: patent publication US20220040136A1, “TREATMENT OF VULVOVAGINAL DISORDERS” (University of Rochester, priority 2018, published 2022)
